The values that follow come from publication PMC6934184, “Selective DNA-PKcs inhibition extends the therapeutic index of localized radiotherapy and chemotherapy” (The Journal of Clinical Investigation, 2019).

This assay concerns the target T1, ACVR1B (ALK4) (Homo sapiens, UniProt P36896).
T1 construct: purchased Thermo Fisher Scientific (Life Technologies) SelectScreen
Description: SelectScreen Z'LYTE. In kind it is biochemical. Summed up: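 Compound tested in SelectScreen activity assays, Z'LYTE for CSF1R, CDK1/cyclin B and MAP2K6 and Adapta for CAMK1. ATP for CAMK1 was listed as 10, and Km app was used for CSF1R. Results are expressed in percent.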

Structures are written as SMILES.

T1 sequence (P36896 24-505): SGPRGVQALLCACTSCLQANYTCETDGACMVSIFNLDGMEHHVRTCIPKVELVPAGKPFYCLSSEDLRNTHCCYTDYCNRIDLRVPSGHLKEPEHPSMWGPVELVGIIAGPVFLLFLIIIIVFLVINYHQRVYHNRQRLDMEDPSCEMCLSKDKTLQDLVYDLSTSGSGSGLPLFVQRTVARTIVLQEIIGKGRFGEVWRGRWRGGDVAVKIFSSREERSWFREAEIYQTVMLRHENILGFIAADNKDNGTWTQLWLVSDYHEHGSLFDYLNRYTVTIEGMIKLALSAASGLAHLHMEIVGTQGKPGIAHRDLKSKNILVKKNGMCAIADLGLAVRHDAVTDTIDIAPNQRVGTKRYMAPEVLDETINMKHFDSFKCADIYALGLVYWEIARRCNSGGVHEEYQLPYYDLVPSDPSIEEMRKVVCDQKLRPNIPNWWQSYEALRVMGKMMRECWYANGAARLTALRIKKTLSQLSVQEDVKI

`CN(C(=O)CN1CCOCC1)c1ccc2sc3c(-c4cccc5c(=O)cc(N6CC7CCC(C6)O7)oc45)cccc3c2c1` [NU5455] registered an inhibition at 1 µM of 2%.

The term inhibition denotes the share of the control response that was lost under treatment. A lower inhibition goes with a response near the control.
